Measured values as given in article PMC11203437, “Subtle Structural Differences Affect the Inhibitory Potency of RGD-Containing Cyclic Peptide Inhibitors Targeting SPSB Proteins” (International Journal of Molecular Sciences, 2024).
One block for each molecule: values may come before it. Peptide text beside a SMILES is read from it.

Assays:
[1] = target: T1, SPSB2 (His6-tagged SPRY domain of human SPSB2, residues 22-220) (Homo sapiens, UniProt Q99619); experiment: isothermal titration calorimetry (ITC), binding to SPSB2; settings: ITC Kd compared with cR8 Kd reported previously [19]
T1 construct: His6; made in house
T1 sequence (Q99619 22-220): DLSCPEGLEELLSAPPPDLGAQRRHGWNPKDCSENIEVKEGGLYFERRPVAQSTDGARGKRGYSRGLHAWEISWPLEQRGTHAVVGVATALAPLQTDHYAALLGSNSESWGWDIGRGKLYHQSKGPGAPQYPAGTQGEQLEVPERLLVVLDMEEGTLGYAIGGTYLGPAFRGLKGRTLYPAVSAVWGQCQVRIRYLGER
Description: (§1) The preparation of the recombinant His6-tagged SPRY domain of human SPSB2 (UniProtKB accession number Q99619, residues 22-220) has been previously described. Briefly, SPSB2 protein was initially purified using a Ni-NTA column and the amount of the protein was measured using the Bradford method. Either cR7 or cR9, at 1.5-fold molar excess, was then added to the protein and the SPSB2-cR7 and SPSB2-cR9 complexes were purified by gel filtration using a HiLoad 16/600 Superdex 75 column (GE Healthcare, Marlborough, MA, USA) equilibrated against a buffer containing 50 mM Tris-HCl pH 7.5, 150 mM NaCl, 5 mM DTT. To generate the GST-fusion proteins used in the cell lysate inhibition assay, the SPRY domains of human TRIM25 (UniProtKB Q14258, residues 433-630), SPSB2, SPSB1 (UniProtKB Q96BD6, residues 28-232), and SPSB4 (UniProtKB Q96A44, residues 28-232) were inserted into the pGEX-4T-2 vector (GE Healthcare, Marlborough, MA, USA). Protein expression was induced in an LB medium supplemented with 0.1 mM isopropyl β-D-1-thiogalactopyranoside (IPTG) at 18 °C overnight. […]
All ITC measurements were performed at 25 °C using iTC200 (Malvern Panalytical, Malvern, UK). […] The dissociation constant (Kd) was calculated, with the error from the Origin-calculated association constant (K) transferred as the same fraction of the primary value.

[2] = test system: SPSB2-iNOS interaction (GST-tagged SPRY domain of SPSB2; full-length iNOS from RAW 264.7 lysate); experiment: cell lysate inhibition assay, SPSB2-iNOS interaction (GST pull-down, Western blot); type: biochemical, human (SPSB2); settings: for displacement of full-length iNOS from SPSB2: 10 μM peptide, LPS/IFN-γ-stimulated RAW 264.7 lysate, 2 h, pH 7.5 lysis buffer, GST pull-down, anti-iNOS Western blot
Description: (§2) Figure 6 Inhibition of SPSB-iNOS interactions by cR7, cR8, and cR9. Cell lysates from lipopolysaccharide/interferon-γ-stimulated RAW 264.7 cells were incubated with the GST-tagged SPRY domains of (A) SPSB2, (B) SPSB1, and (C) SPSB4 in the absence or presence of cR7, cR8, and cR9. GST-tagged SPRY domain of TRIM25 was used as a negative control. A 9-mer linear peptide (hK9) derived from the iNOS N-terminal region was included as a control. After interaction for 2 h, GST-fusion proteins were recovered via affinity purification using glutathione-sepharose 4B beads. Interaction with full-length iNOS was analyzed by Western blotting with anti-iNOS antibody (upper panels) and equivalent protein input was confirmed by reprobing the membranes with anti-GST antibody (lower panels).
as §1, with “overnight. Cells were harvested and resuspended in PBS, and then lysed using a cell disruptor (JNBIO, Guangzhou, China). Soluble GST-tagged proteins were purified using a glutathione sepharose 4B column prepared with PBS.” for “overnight.”

[3] = test system: SPSB1-iNOS interaction (GST-tagged SPRY domain of SPSB1; full-length iNOS from RAW 264.7 lysate); experiment: cell lysate inhibition assay, SPSB1-iNOS interaction (GST pull-down, Western blot); type: biochemical, human (SPSB1); settings: for inhibition of SPSB1-iNOS interaction: 1 μM peptide, LPS/IFN-γ-stimulated RAW 264.7 lysate, 2 h, GST pull-down, anti-iNOS Western blot
Description: as §2
as §1, with “overnight. Cells were harvested and resuspended in PBS, and then lysed using a cell disruptor (JNBIO, Guangzhou, China). Soluble GST-tagged proteins were purified using a glutathione sepharose 4B column prepared with PBS.” for “overnight.”

[4] = test system: SPSB4-iNOS interaction (GST-tagged SPRY domain of SPSB4; full-length iNOS from RAW 264.7 lysate); experiment: cell lysate inhibition assay, SPSB4-iNOS interaction (GST pull-down, Western blot); type: biochemical, human (SPSB4); settings: for displacement of full-length iNOS from SPSB4: 10 μM peptide, LPS/IFN-γ-stimulated RAW 264.7 lysate, 2 h, GST pull-down, anti-iNOS Western blot
Description: as §2
as §1, with “overnight. Cells were harvested and resuspended in PBS, and then lysed using a cell disruptor (JNBIO, Guangzhou, China). Soluble GST-tagged proteins were purified using a glutathione sepharose 4B column prepared with PBS.” for “overnight.”

[5] = target: T2, His6-tagged SPRY domain of human SPSB2 (residues 22-220) (human, UniProt Q99619 22-220); experiment: ITC; 100 μM cR7 or cR9 titrated into 10 μM SPSB2; 25 °C; 50 mM Tris-HCl pH 7.5, 150 mM NaCl, 5 mM DTT; single binding site model; settings: both partners purified
T2 construct: SPRY domain of human SPSB2, UniProtKB Q99619, residues 22-220; also called SPRY domain-containing SOCS box protein 2; source: recombinant, purified (Ni-NTA; complexes with peptide by gel filtration on Superdex 75); preparation previously described [26]
T2 sequence (looked up): T1 sequence (Q99619 22-220)

[6] = target: T3, GST-tagged SPRY domain of human SPSB1 (residues 28-232) (human, UniProt Q96BD6 28-232); experiment: pull-down; competition: 1 μM or 10 μM cyclic peptide added to the RAW 264.7 lysate with 2 μg/mL GST-tagged SPRY domain for 2 h; iNOS recovered on glutathione sepharose 4B read by Western blot; settings: both partners purified
T3 construct: SPRY domain of human SPSB1, UniProtKB Q96BD6, residues 28-232; Cloned into pGEX-4T-2; also called SPSP1; source: recombinant, induced with IPTG in LB medium, purified (glutathione sepharose 4B)
T3 sequence (looked up): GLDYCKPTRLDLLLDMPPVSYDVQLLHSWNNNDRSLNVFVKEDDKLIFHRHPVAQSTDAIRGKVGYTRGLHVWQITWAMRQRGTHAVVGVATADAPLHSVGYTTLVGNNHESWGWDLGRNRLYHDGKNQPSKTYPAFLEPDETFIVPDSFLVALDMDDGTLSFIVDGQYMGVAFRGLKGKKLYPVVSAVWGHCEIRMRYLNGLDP

[7] = target: T4, GST-tagged SPRY domain of human SPSB4 (residues 28-232) (human, UniProt Q96A44 28-232); experiment: as above; settings: both partners purified
T4 construct: SPRY domain of human SPSB4, UniProtKB Q96A44, residues 28-232; Cloned into pGEX-4T-2; source: recombinant, induced with IPTG in LB medium, purified (glutathione sepharose 4B)
T4 sequence (looked up): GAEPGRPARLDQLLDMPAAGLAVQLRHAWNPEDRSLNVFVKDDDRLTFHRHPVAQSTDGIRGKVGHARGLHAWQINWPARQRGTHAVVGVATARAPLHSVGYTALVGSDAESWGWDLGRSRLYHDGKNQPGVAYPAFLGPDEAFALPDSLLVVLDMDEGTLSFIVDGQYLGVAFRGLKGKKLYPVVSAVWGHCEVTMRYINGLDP

[8] = overall comparison of cR7, cR8 and cR9, 1 or 10 μM, Western blot

- SPSB2-binding affinity, fold higher than cR8 [1]: ~ 6.5 fold
Molecule: CC[C@H](C)[C@@H]1NC(=O)[C@H](CC(=O)O)NC(=O)CNC(=O)[C@H](CCCNC(=N)N)NC(=O)[C@H](CC(N)=O)NC(=O)[C@H](CC(N)=O)NC(=O)[C@H](CC(N)=O)NC1=O [cR7, cyclo(RGDINNN)] (cyclo(RGDINNN))
- displacement of full-length iNOS from SPSB2 [2]: able to displace full-length iNOS binding to SPSB2
- overall inhibition of SPSB2-iNOS interaction, relative [2, 8]: stronger inhibition
- inhibition of SPSB1-iNOS interaction [3]: can effectively inhibit SPSB1-iNOS interaction
- overall inhibition of SPSB1-iNOS interaction, relative [3, 8]: stronger inhibition
- displacement of full-length iNOS from SPSB4 [4]: able to displace full-length iNOS binding to SPSB4
- overall inhibition of SPSB4-iNOS interaction, relative [4, 8]: stronger inhibition

- SPSB2-binding affinity, fold higher than cR8 [1]: ~ 2 fold
Molecule: CC[C@H](C)[C@@H]1NC(=O)[C@H](CC(=O)O)NC(=O)CNC(=O)[C@H](CCCNC(=N)N)NC(=O)[C@H](CCC(=O)O)NC(=O)[C@H](C(C)C)NC(=O)[C@H](CC(N)=O)NC(=O)[C@H](CC(N)=O)NC(=O)[C@H](CC(N)=O)NC1=O [cR9, cyclo(RGDINNNVE)] (cyclo(RGDINNNVE))
- displacement of full-length iNOS from SPSB2 [2]: able to displace full-length iNOS binding to SPSB2
- inhibition of SPSB1-iNOS interaction [3]: can effectively inhibit SPSB1-iNOS interaction
- displacement of full-length iNOS from SPSB4 [4]: able to displace full-length iNOS binding to SPSB4

- Kd [5]: 308 nM
- binding result [6]: binds
- binding result [7]: binds
B1: cR9, cyclo(RGDINNNVE) (peptide)
peptide: RGDINNNVE
modifications: head-to-tail amide-cyclized
notes: designed cyclic peptide: RGD motif joined to the iNOS-derived stretch DINNNVE; Cyclic: the last residue is amide-bonded to the first; source: synthetic peptide (GL Biochem Ltd.)

- Kd [5]: 103 nM
- stoichiometry N [5]: 1
- binding result [6]: binds
- binding result [7]: binds
B2: cR7, cyclo(RGDINNN) (peptide)
peptide: RGDINNN
modifications: head-to-tail amide-cyclized
notes: Cyclic: the last residue is amide-bonded to the first; source: synthetic peptide (GL Biochem Ltd.)
